According to paper PMC7936271, “Discovery and characterization of bromodomain 2–specific inhibitors of BRDT” (Proceedings of the National Academy of Sciences of the …, 2021):
Values joined by “and” are separate entries in the source; they are usually repeats but may differ in a detail not shown here. Equal entries are not always repeated.

Assays:
[1] = mice; cited from earlier work
BRDT-BD2 [2] = tested on: BRDT-BD2
[3] = Metabolic stability assay in human liver microsomes; type: in vitro ADME; settings: for half-life at 2 μM: read-out: t1/2, min HLM
Experimental: (§1) 2d) Metabolic stability assay in liver microsomes. […]
(§2) The reactions are terminated by adding equivalent
(§3) volume of ice-cold CH3OH and vortexed.
(§4) temperature was ma i ntained at 40 °C.
(§5) (acetonitrile containing 0.1% formic acid). […]

BRDT-BD1 [4] = tested on: BRDT-BD1
BRD4-BD1 [5] = tested on: BRD4-BD1
[6] = Metabolic stability assay in mouse liver microsomes; type: in vitro ADME; settings: for half-life at 2 μM: read-out: t1/2, min MLM
Experimental: as §1, §2, §3, §4, §5

BRDT-BD2 [7] = target: T1, BRDT-BD2 (Homo sapiens, UniProt Q58F21); test: AlphaScreen competition assay with biotinylated JQ1, BRDT-BD2; type: binding; parameters: BRDT-BD2, NP_001717.3 amino acid 269− 380; made in house; host or cells: E. coli NiCo21 (DE3); settings: for BRDT-BD2 vs. BRD4-BD2: ratio of AlphaScreen IC50 values
BRD4-BD2 [8] = tested on: BRD4-BD2
BD2 = tested on: BD2; parameters: method as in PMID 32193360; settings: BD2-specific inhibitor; cited from earlier work
various bromodomains = test: BROMOscan bromodomain profiling on various bromodomains; type: binding; settings: result in words
Experimental: 2a) Bromodomain proximity assay. The AlphaScreenTM assay was performed following previous […]
The plate was read on a Tecan Infinite […]
the protein thermal shift assay.
Orange dye at 5 × in a 10- µL reaction.
Lightcycler 480 real-time PCR instrument.
2c) NanoBRET target engagement intracellular BET bromodomain assay. The NanoLuc -BRDT-BD1 […]
(Promega, USA) to replace the corresponding BRD4 bromodomain sequences. The NanoBRET tracer […]
The cells were then preincubated with tested
2d) Metabolic stability assay in liver microsomes. Compounds 3–10, 15, 17 and 20–2 2 (2.0 μM) were incubated in the mouse or human liver microsomes (0.5 mg protein/mL) at 37 °C. The samples are collected […]
The reactions are terminated by adding equivalent volume of ice-cold CH3OH and vortexed. […]
as §4
(acetonitrile containing 0.1% formic acid).
2e) BROMOscan bromodomain profiling. BROMOscan bromodomain profiling was provided by […]
against a proprietary reference immobilized ligand.

BRDT-BD1 [9] = target: BRDT-BD1; remark: listed apart in the source
BRD2-BD2 [10] = target: T2, BRD2-BD2 (Homo sapiens, UniProt P25440); test: BROMOscan BromoKdELECT competition binding, BRD2-BD2; settings: BromoKdELECT dose-response; read-out: Binding Constants (Kd), nM BRD2-BD2
T2 construct: purchased Eurofins DiscoverX Corp
T2 sequence (P25440 344-453 limits assumed): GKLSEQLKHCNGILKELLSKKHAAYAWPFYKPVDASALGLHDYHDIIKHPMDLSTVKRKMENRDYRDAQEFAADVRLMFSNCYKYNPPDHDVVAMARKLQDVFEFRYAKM

BRD3-BD2 [11] = target: T3, BRD3-BD2 (Homo sapiens, UniProt Q15059); test: BROMOscan BromoKdELECT competition binding, BRD3-BD2; settings: BromoKdELECT dose-response; read-out: Binding Constants (Kd), nM BRD3-BD2
T3 construct: purchased Eurofins DiscoverX Corp
T3 sequence (Q15059 306-415 limits assumed): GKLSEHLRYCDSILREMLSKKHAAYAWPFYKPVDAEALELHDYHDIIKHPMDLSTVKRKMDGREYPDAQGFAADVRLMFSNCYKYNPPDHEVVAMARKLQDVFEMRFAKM

BRD2-BD2 [12] = target: BRD2-BD2
BRD4-BD2 [13] = target: BRD4-BD2; remark: listed apart in the source
BRD4-BD1 [14] = target: BRD4-BD1; remark: listed apart in the source
BRD4-BD1 [15] = target: T4, BRD4-BD1 (Homo sapiens, UniProt O60885); test: AlphaScreen competition assay with biotinylated JQ1, BRD4-BD1; type: binding; settings: AlphaScreen, biotinylated JQ1 as ligand; NE: no effect at 20 µM
T4 construct: amino acid 44− 168; made in house; host or cells: E. coli NiCo21 (DE3)

BRDT-BD2 [16] = target: BRDT-BD2; remark: listed apart in the source
BRD4-BD2 [17] = target: BRD4-BD2; remark: listed apart in the source
BRDT-BD1 [18] = target: T5, BRDT-BD1 (Homo sapiens, UniProt Q58F21); test: AlphaScreen competition assay with biotinylated JQ1, BRDT-BD1; type: binding; settings: AlphaScreen, biotinylated JQ1 as ligand; NE: no effect at 20 µM
T5 construct: NP_001717.3 amino acid 21− 137; made in house; host or cells: E. coli NiCo21 (DE3)

BRDT-BD2 [19] = target: T1, BRDT-BD2; test: BROMOscan BromoKdELECT competition binding, BRDT-BD2; parameters: purchased Eurofins DiscoverX Corp
BRD4-BD2 [20] = target: T6, BRD4-BD2 (Homo sapiens, UniProt O60885); test: AlphaScreen competition assay with biotinylated JQ1, BRD4-BD2; type: binding; parameters: BD2, NP_055114.1 amino acid 333− 460; made in house; host or cells: E. coli NiCo21 (DE3)
BRDT-BD2 [21] = target: BRDT-BD2; remark: listed apart in the source
BRD4-BD2 [22] = target: T6, BRD4-BD2; test: BROMOscan BromoKdELECT competition binding, BRD4-BD2; parameters: purchased Eurofins DiscoverX Corp; settings: BromoKdELECT dose-response; read-out: Binding Constants (Kd), nM BRD4-BD2
BRD3-BD2 [23] = target: BRD3-BD2
[24] = human liver microsomes, 2.0 μM, 37 °C, data >60 min are an extrapolated estimate
[25] = mouse liver microsomes, 2.0 μM, 37 °C, data >60 min are an extrapolated estimate
[26] = AlphaScreen, biotinylated JQ1 as ligand

Question: What does the source list for `Cc1sc2c(c1C)C(c1ccc(Cl)cc1)=N[C@@H](CC(=O)OC(C)(C)C)c1nnc(C)n1-2` [JQ1, reference compound]?
Answer: bioavailable across the blood-testis boundary [1]: 100%; ΔTm at 25 µM (BRDT-BD2 [2]): 10.3 °C; half-life at 2 μM [3, 24]: 0.1 h; ΔTm at 25 µM (BRDT-BD1 [4]): 3.48 °C; ΔTm at 25 µM (BRD4-BD1 [5]): 7.84 °C; half-life at 2 μM [6, 25]: 0.25 h; BRDT-BD2 vs. BRD4-BD2 (BRDT-BD2 [7]): 0.4; ΔTm at 25 µM (BRD4-BD2 [8]): 7.43 °C

Question: Which “selectivity over BD1” value (BD2) does the source give for `CC(=O)Nc1c(F)cc(C(=O)N[C@H]2CC[C@H](O)CC2)cc1O[C@@H](C)c1ccccc1` [GSK046] here?
Answer: Its value is over 300 fold.

Question: For `CNC(=O)c1ccc(C(=O)Nc2cc(NC(=O)c3ccc4c(c3)c(-c3ccc(N)cc3C)nn4C)ccc2C)cc1` [Compound 9], which half-life at 2 μM [3, 24] is on record?
Answer: The half-life at 2 μM was 2.5 h.

Question: And the human microsomal stability ([3]; result in words)?
Answer: Its human microsomal stability is “high metabolic stability”.

Question: And the half-life at 2 μM [6, 25]?
Answer: Its half-life at 2 μM is 1.53 h.

Question: What about the mouse microsomal stability ([6]; result in words) of the same compound?
Answer: Its mouse microsomal stability is “greater stability in mouse liver microsomes (MLMs) over other hits”.

Question: And the BROMOscan bromodomain profile (various bromodomains)?
Answer: The BROMOscan bromodomain profile was “very weak binding to two bromodomains outside of the BET subfamily”.

Question: Which IC50 (BRDT-BD1 [9]) does the source give for `CC(=O)Nc1cc(NC(=O)c2ccc3c(c2)c(-c2ccc(N)cc2C)nn3C)ccc1C` [Compound 20] here?
Answer: The IC50 was > 10000 nM and 15800 nM.

Question: What about the Kd (BRD2-BD2 [10]) of the same compound?
Answer: The Kd was 7.8 nM.

Question: And the Kd (BRD3-BD2 [11])?
Answer: Its Kd is 2 nM.

Question: What about the Kd (BRD2-BD2 [12]) of the same compound?
Answer: The Kd was 7.8 nM.

Question: What about the IC50 (BRD4-BD2 [13]) of the same compound?
Answer: Its IC50 is 12 nM.

Question: And the IC50 (BRD4-BD1 [14])?
Answer: Its IC50 is 10400 nM.

Question: And the “t1/2, min HLM” value [3, 24]?
Answer: The value was 6.17 h.

Question: And the IC50 (BRD4-BD1 [15])?
Answer: Its IC50 is 10400 nM.

Question: And the IC50 (BRDT-BD2 [16])?
Answer: Its IC50 is 8 nM.

Question: What about the Kd (BRD4-BD2 [17]) of the same compound?
Answer: The Kd was 1.6 nM.

Question: And the “t1/2, min MLM” value [6, 25]?
Answer: Its value is 1.2 h.

Question: What about the IC50 (BRDT-BD1 [18]) of the same compound?
Answer: Its IC50 is 15800 nM.

Question: What about the “more potent than JQ1 at binding BRDT-BD2” value (BRDT-BD2 [19]; BromoKdELECT dose-response curves) of the same compound?
Answer: Its value is “more than 20 fold”.

Question: What about the Kd (BRDT-BD2 [19]; BromoKdELECT dose-response, read-out: Binding Constants (Kd), nM BRDT-BD2) of the same compound?
Answer: The Kd was 1.3 nM.

Question: And the “BRD4-BD2 vs. BRD4-BD1 (BRD4-BD2 selectivity)” value (BRD4-BD2 [20])?
Answer: The value was 860.

Question: And the IC50 (BRD4-BD2 [20]; [26])?
Answer: Its IC50 is 12 nM.

Question: What about the Kd (BRDT-BD2 [21]) of the same compound?
Answer: The Kd was 1.3 nM.

Question: And the Kd (BRD4-BD2 [22])?
Answer: Its Kd is 1.6 nM.

Question: And the “BRDT-BD2 vs. BRDT-BD1 (BRDT-BD2 selectivity)” value (BRDT-BD2 [7])?
Answer: Its value is 2,000.

Question: What about the IC50 (BRDT-BD2 [7]; [26]) of the same compound?
Answer: The IC50 was 8 nM.

Question: What about the “BRDT-BD2 activity / affinity” value (BRDT-BD2 [7]; AlphaScreen, result in words) of the same compound?
Answer: Its value is “no loss in activity”.

Question: And the “BRDT-BD2 vs. BRD4-BD2” value (BRDT-BD2 [7])?
Answer: Its value is 1.5.

Question: And the BROMOscan bromodomain profile (various bromodomains)?
Answer: Its BROMOscan bromodomain profile is “potent and selective binding to only the second bromodomains within the BET subfamily”.

Question: What about the Kd (BRD3-BD2 [23]) of the same compound?
Answer: The Kd was 2 nM.
